Twelve compounds from patent US12103920B2, “Cereblon binding compounds, compositions thereof, and methods of treatment therewith” (Celgene Corporation, priority 2020, dated 2024) can be followed below.

The assay deals with T1, AR protein in VCaP cells (Homo sapiens, UniProt P10275).
T1 construct: endogenous in cells; host or cells: VCaP cells
T1 sequence (P10275 1-920): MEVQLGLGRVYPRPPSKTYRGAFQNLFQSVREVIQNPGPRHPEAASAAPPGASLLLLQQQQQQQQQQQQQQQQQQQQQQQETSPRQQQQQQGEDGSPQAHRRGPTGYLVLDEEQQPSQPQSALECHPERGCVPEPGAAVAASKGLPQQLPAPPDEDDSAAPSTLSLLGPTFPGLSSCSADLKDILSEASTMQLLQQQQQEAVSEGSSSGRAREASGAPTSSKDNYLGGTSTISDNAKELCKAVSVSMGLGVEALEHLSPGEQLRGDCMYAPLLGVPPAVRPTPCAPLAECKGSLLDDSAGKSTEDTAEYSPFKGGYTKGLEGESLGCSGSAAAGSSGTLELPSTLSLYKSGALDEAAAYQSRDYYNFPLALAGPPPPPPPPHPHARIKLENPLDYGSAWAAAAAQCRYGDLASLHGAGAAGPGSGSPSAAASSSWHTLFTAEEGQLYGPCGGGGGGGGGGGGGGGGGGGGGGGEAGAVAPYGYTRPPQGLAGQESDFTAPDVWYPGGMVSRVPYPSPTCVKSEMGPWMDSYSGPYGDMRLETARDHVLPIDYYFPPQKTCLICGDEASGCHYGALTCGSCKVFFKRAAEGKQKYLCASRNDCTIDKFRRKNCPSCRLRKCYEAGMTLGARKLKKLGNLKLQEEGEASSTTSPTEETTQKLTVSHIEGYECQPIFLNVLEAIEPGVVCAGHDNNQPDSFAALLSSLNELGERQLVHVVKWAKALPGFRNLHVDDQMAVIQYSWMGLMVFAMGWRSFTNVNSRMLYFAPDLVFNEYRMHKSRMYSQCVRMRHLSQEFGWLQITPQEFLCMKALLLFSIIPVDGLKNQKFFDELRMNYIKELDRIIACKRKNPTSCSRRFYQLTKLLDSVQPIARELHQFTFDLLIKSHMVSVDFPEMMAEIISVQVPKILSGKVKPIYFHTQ
The assay can be described thus: VCAP AR Degradation Assay. The class given is cell-based. As to conditions: 24 h, AR ELISA; for DC50: concentration at 50% of DMSO control (50% AR degradation); for Y: lowest measured AR level normalized to DMSO control. How it is done:
VCAP AR Degradation Assay. Test compounds were pre-dispensed into a Corning CellBind 96-well clear bottom plate (Cat #3300) using an acoustic dispenser to make a 10-point concentration series at 1:3 dilution for each compound. The final top concentration of each compound was 5 μM. DMSO at a final concentration of 0.1% was used as a control. VCaP cells cultured in DMEM with 8% fetal bovine serum (FBS) were seeded at 50K cells per well in a 200 μL volume into the compound plate and incubated at 37° C. in a CO2 incubator for 24 h. The medium was carefully removed from the cells and the plate was placed on ice. One hundred μL of ice-cold 1× cell lysis buffer from Cell Signaling Technologies (Cat #9803) was added to each well of the cells and the plate was incubated at 4° C. on a shaker for 1 h. Fifteen μL of cell lysate was used for AR ELISA detection using a PathScan Total Sandwich AR ELISA kit (Cell Signaling Technology, Cat #12580). AR levels in compound-treated wells were normalized to that of DMSO control and expressed as percent of control (PoC) (y). A Four Parameter Logistic Model (Sigmoidal Dose-Response Model) was used to determine the compound's DC50, and EC50, using the following equation: y=(A+((B−A)/(1+((C/x)^D)))) • A=YMin (lowest AR level normalized to DMSO control in response to compound treatment, as determined by curve fit) • B=YMax (maximum AR level as determined by curve fit) • C=EC50 • D=Hill Slope • x=compound concentration • EC50=the concentration of compound when y=(YMax−YMin)/2 • DC50=the concentration of the compound when y=50% of DMSO control (50% AR degradation) • y=AR protein level normalized to DMSO control
The lowest measured AR level normalized to DMSO control in response to compound treatment, termed Y value, was used to characterize the compound-mediated AR degradation efficiency.
(In an ELISA, binding on a coated surface is turned into a signal by an enzyme label.)

Counter-ions that a name gives are not always drawn.

In the case of `CC1(C)C(=O)N(c2ccc(C#N)c(C(F)(F)F)c2)C(=S)N1[C@H]1CC[C@H](OCCN2CCN(CC(=O)Nc3cc(C#N)cc(NC4CCC(=O)NC4=O)c3)[C@@H](C(F)(F)F)C2)CC1` (stereo partly drawn) [Cmpd 34, 2-((R)-4-(2-(((trans)-4-(3-(4-Cyano-3-(trifluoromethyl)phenyl)-5,5-dimethyl-4-oxo-2-thioxoimidazolidin-1-yl)cyclohexyl)oxy)ethyl)-2-(trifluoromethyl)piperazin-1-yl)-N-(3-cyano-5-((2,6-dioxopiperidin-3-yl)amino)phenyl)acetamide], the DC50 is 5 to 10 nM and the Y entry is listed as “*** (25%<Y<50%)”.
On the same counts, the results for `C[C@@H]1C[C@H](OCCO[C@H]2CC[C@H](N3C(=S)N(c4ccc(C#N)c(C(F)(F)F)c4)C(=O)C3(C)C)CC2)C[C@H](C)N1CC(=O)Nc1cccc(NC2CCC(=O)NC2=O)c1` (stereo partly drawn) [Cmpd 43, 2-((2R,4r,6S)-4-(2-(((trans)-4-(3-(4-Cyano-3-(trifluoromethyl)phenyl)-5,5-dimethyl-4-oxo-2-thioxoimidazolidin-1-yl)cyclohexyl)oxy)ethoxy)-2,6-dimethylpiperidin-1-yl)-N-(3-((2,6-dioxopiperidin-3-yl)amino)phenyl)acetamide] are 5 to 10 nM and “*** (25%<Y<50%)”.
For `CC1(C)C(=O)N(c2cnc(C#N)c(C(F)(F)F)c2)C(=S)N1[C@H]1CC[C@H](OCCN2CCN(CC(=O)Nc3cccc(N[C@H]4CCC(=O)NC4=O)c3)[C@@H](C(F)(F)F)C2)CC1` [Cmpd 41, 2-((R)-4-(2-(((trans)-4-(3-(6-Cyano-5-(trifluoromethyl)pyridin-3-yl)-5,5-dimethyl-4-oxo-2-thioxoimidazolidin-1-yl)cyclohexyl)oxy)ethyl)-2-(trifluoromethyl)piperazin-1-yl)-N-(3-(((S)-2,6-dioxopiperidin-3-yl)amino)phenyl)acetamide hydrochloride] the same measures were ≤ 5 nM and “* (0<Y≤15%)”.
On the same counts, the results for `C[C@@H]1CN(CCC[C@H]2CC[C@H](N3C(=S)N(c4ccc(C#N)c(C(F)(F)F)c4)C(=O)C3(C)C)CC2)C[C@H](C)N1CC(=O)Nc1cccc(N[C@H]2CCC(=O)NC2=O)c1` [Cmpd 18, 2-((2R,6S)-4-(3-(trans-4-(3-(4-Cyano-3-(trifluoromethyl)phenyl)-5,5-dimethyl-4-oxo-2-thioxoimidazolidin-1-yl)cyclohexyl)propyl)-2,6-dimethylpiperazin-1-yl)-N-(3-(((S)-2,6-dioxopiperidin-3-yl)amino)phenyl)acetamide] are 10 to 100 nM and “** (15%<Y≤20%)”.
In the case of `CC1(C)C(=O)N(c2cnc(C#N)c(C(F)(F)F)c2)C(=S)N1[C@H]1CC[C@H](OCCN2CCN(CC(=O)Nc3cc(F)cc(NC4CCC(=O)NC4=O)c3)[C@@H](C(F)(F)F)C2)CC1` (stereo partly drawn) [Cmpd 24, 2-((R)-4-(2-(((trans)-4-(3-(6-Cyano-5-(trifluoromethyl)pyridin-3-yl)-5,5-dimethyl-4-oxo-2-thioxoimidazolidin-1-yl)cyclohexyl)oxy)ethyl)-2-(trifluoromethyl)piperazin-1-yl)-N-(3-((2,6-dioxopiperidin-3-yl)amino)-5-fluorophenyl)acetamide], the DC50 was ≤ 5 nM and the Y result is given as “* (0<Y≤15%)”.
For `CC1(C)C(=O)N(c2ccc(C#N)c(C(F)(F)F)c2)C(=S)N1[C@H]1CC[C@H](OCCN2CCN(CC(=O)Nc3cccc(NC4CCC(=O)NC4=O)c3)[C@@H](C(F)(F)F)C2)CC1` (stereo partly drawn) [Cmpd 19, 2-((R)-4-(2-((trans-4-(3-(4-Cyano-3-(trifluoromethyl)phenyl)-5,5-dimethyl-4-oxo-2-thioxoimidazolidin-1-yl)cyclohexyl)oxy)ethyl)-2-(trifluoromethyl)piperazin-1-yl)-N-(3-((2,6-dioxopiperidin-3-yl)amino)phenyl)acetamide hydrochloride], the DC50 is 5 to 10 nM and the Y entry is reported as “* (0<Y≤15%)”.
For `C[C@@H]1CN(CCO[C@H]2CC[C@H](N3C(=S)N(c4cnc(C#N)c(C(F)(F)F)c4)C(=O)C3(C)C)CC2)C[C@H](C)N1CC(=O)Nc1cccc(NC2CCC(=O)NC2=O)c1` (stereo partly drawn) [Cmpd 5, 2-((2R,6S)-4-(2-((trans-4-(3-(6-Cyano-5-(trifluoromethyl)pyridin-3-yl)-5,5-dimethyl-4-oxo-2-thioxoimidazolidin-1-yl)cyclohexyl)oxy)ethyl)-2,6-dimethylpiperazin-1-yl)-N-(3-((2,6-dioxopiperidin-3-yl)amino)phenyl)acetamide hydrochloride] the same measures were ≤ 5 nM and “*** (25%<Y<50%)”.
For `C[C@@H]1C[C@H](OCCO[C@H]2CC[C@H](N3C(=S)N(c4cnc(C#N)c(C(F)(F)F)c4)C(=O)C3(C)C)CC2)C[C@H](C)N1CC(=O)Nc1cccc(NC2CCC(=O)NC2=O)c1` (stereo partly drawn) [Cmpd 45, 2-((2R,4r,6S)-4-(2-(((trans)-4-(3-(6-Cyano-5-(trifluoromethyl)pyridin-3-yl)-5,5-dimethyl-4-oxo-2-thioxoimidazolidin-1-yl)cyclohexyl)oxy)ethoxy)-2,6-dimethylpiperidin-1-yl)-N-(3-((2,6-dioxopiperidin-3-yl)amino)phenyl)acetamide] the same measures were ≤ 5 nM and “** (15%<Y≤20%)”.
On the same counts, the results for `C[C@@H]1CN(CCC[C@H]2CC[C@H](N3C(=S)N(c4cnc(C#N)c(Cl)c4)C(=O)C3(C)C)CC2)C[C@H](C)N1CC(=O)Nc1cccc(NC2CCC(=O)NC2=O)c1` (stereo partly drawn) [Cmpd 13, 2-((2R,6S)-4-(3-(trans-4-(3-(5-Chloro-6-cyanopyridin-3-yl)-5,5-dimethyl-4-oxo-2-thioxoimidazolidin-1-yl)cyclohexyl)propyl)-2,6-dimethylpiperazin-1-yl)-N-(3-((2,6-dioxopiperidin-3-yl)amino)phenyl)acetamide hydrochloride] are 5 to 10 nM and “*** (25%<Y<50%)”.
As for `CC1(C)C(=O)N(c2cnc(C#N)c(C(F)(F)F)c2)C(=S)N1[C@H]1CC[C@H](OCCN2CCN(CC(=O)Nc3cc(Cl)cc(NC4CCC(=O)NC4=O)c3)[C@@H](C(F)(F)F)C2)CC1` (stereo partly drawn) [Cmpd 26, N-(3-Chloro-5-((2,6-dioxopiperidin-3-yl)amino)phenyl)-2-((R)-4-(2-(((trans)-4-(3-(6-cyano-5-(trifluoromethyl)pyridin-3-yl)-5,5-dimethyl-4-oxo-2-thioxoimidazolidin-1-yl)cyclohexyl)oxy)ethyl)-2-(trifluoromethyl)piperazin-1-yl)acetamide], the DC50 is 5 to 10 nM and the Y entry is recorded as “* (0<Y≤15%)”.
For `C[C@@H]1CN(CCO[C@H]2CC[C@H](N3C(=S)N(c4cnc(C#N)c(Cl)c4)C(=O)C3(C)C)CC2)C[C@H](C)N1CC(=O)Nc1cccc(NC2CCC(=O)NC2=O)c1` (stereo partly drawn) [Cmpd 8, hydrochloride] the same measures were 5 to 10 nM and “*** (25%<Y<50%)”.
For `CC1(C)C(=O)N(c2cnc(C#N)c(C(F)(F)F)c2)C(=S)N1[C@H]1CC[C@H](OCCN2CCN(CC(=O)Nc3cccc(N[C@@H]4CCC(=O)NC4=O)c3)[C@@H](C(F)(F)F)C2)CC1` [Cmpd 42, 2-((R)-4-(2-(((trans)-4-(3-(6-Cyano-5-(trifluoromethyl)pyridin-3-yl)-5,5-dimethyl-4-oxo-2-thioxoimidazolidin-1-yl)cyclohexyl)oxy)ethyl)-2-(trifluoromethyl)piperazin-1-yl)-N-(3-(((R)-2,6-dioxopiperidin-3-yl)amino)phenyl)acetamide hydrochloride] the same measures were ≤ 5 nM and “* (0<Y≤15%)”.

As a reminder, the DC50 is the concentration at which degradation of the target reaches its halfway point.
